According to ChEMBL document CHEMBL1201862, “PubChem BioAssay data set” (2004):
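Values below derive from 48-hour exposures of cells grown in 96-well plates, with endpoints linearly interpolated between the two concentrations bracketing the appropriate inhibition level. Here, GI50 denotes the concentration required for 50% inhibition of growth.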 The source made the active and inactive calls. Cut-off read from the data, not from the text of the source: active = GI50 up to about 1.1 µM and inactive = higher.

Columns and labels:
Experiment in all cases: NCI tumour cell line growth inhibition, 48 h
786-0 = test system: 786-0
A498 = test system: A498
ACHN = test system: ACHN
COLO 205 = test system: COLO 205
HOP-62 = test system: HOP-62
HT-29 = test system: HT-29
Hs-578T = test system: Hs-578T
M14 = test system: M14
MDA-MB-435 = test system: MDA-MB-435
MOLT-4 = test system: MOLT-4
OVCAR-5 = test system: OVCAR-5
RPMI-8226 = test system: RPMI-8226
SF-295 = test system: SF-295
SF-539 = test system: SF-539
SK-MEL-2 = test system: SK-MEL-2
SNB-19 = test system: SNB-19
TK-10 = test system: TK-10
SNB-75 = test system: SNB-75
U-251 = test system: U-251
MDA-MB-231 = test system: MDA-MB-231

Measured: GI50

O=C(Cn1c2c(c3ccccc31)CCCC2)NC1CCCCC1
inactive: 786-0 69.8 µM | A498 > 100 µM | ACHN > 100 µM | COLO 205 > 100 µM | HOP-62 81.8 µM | HT-29 > 100 µM | Hs-578T 55 µM | M14 > 100 µM | MDA-MB-435 > 100 µM | MOLT-4 > 10 µM | OVCAR-5 46.8 µM | RPMI-8226 > 100 µM | SF-295 51.3 µM | SF-539 > 100 µM | SK-MEL-2 > 100 µM | SNB-19 > 100 µM | TK-10 > 100 µM

CCc1c(CNC2=NCCN2)c(CC)c(CNC2=NCCN2)c(CC)c1CNC1=NCCN1
inactive: 786-0 > 100 µM | A498 > 100 µM | ACHN > 100 µM | COLO 205 > 100 µM | HOP-62 > 100 µM | HT-29 > 100 µM | Hs-578T > 100 µM | M14 > 100 µM | MDA-MB-435 > 100 µM | MOLT-4 > 100 µM | OVCAR-5 > 100 µM | RPMI-8226 > 100 µM | SF-295 > 100 µM | SF-539 > 100 µM | SK-MEL-2 > 100 µM | SNB-19 > 100 µM | SNB-75 > 100 µM | TK-10 > 100 µM | U-251 > 100 µM

Cc1nnc(Nc2ccccc2)o1
inactive: 786-0 > 100 µM | ACHN > 100 µM | COLO 205 > 100 µM | HT-29 > 100 µM | M14 > 100 µM | MDA-MB-435 > 100 µM | MOLT-4 > 100 µM | OVCAR-5 > 100 µM | RPMI-8226 > 100 µM | SF-295 > 100 µM | SF-539 > 100 µM | SK-MEL-2 70.8 µM | SNB-19 > 100 µM | SNB-75 > 100 µM | TK-10 > 100 µM | U-251 > 100 µM

C[S+](C)C1(c2ccccc2)C(=O)c2ccccc2C1=O
inactive: 786-0 > 100 µM | A498 73.8 µM | ACHN > 65.6 µM | COLO 205 > 100 µM | HOP-62 > 56.9 µM | HT-29 > 100 µM | Hs-578T 24.4 µM | M14 > 59.6 µM | MDA-MB-435 42.6 µM | MOLT-4 > 83.2 µM | OVCAR-5 > 49.3 µM | RPMI-8226 > 62.1 µM | SF-295 36.1 µM | SF-539 28.7 µM | SK-MEL-2 > 43 µM | SNB-19 39 µM | SNB-75 29.2 µM | TK-10 > 100 µM | U-251 22.5 µM

Cc1ccc2[nH]c3[nH]c(=O)[nH]c(=O)c3c2c1
inactive: 786-0 > 100 µM | A498 > 100 µM | ACHN > 100 µM | COLO 205 > 100 µM | HOP-62 > 100 µM | HT-29 > 100 µM | Hs-578T > 100 µM | M14 > 100 µM | MDA-MB-435 > 100 µM | MOLT-4 > 100 µM | OVCAR-5 > 100 µM | RPMI-8226 > 100 µM | SF-295 58.3 µM | SF-539 > 100 µM | SK-MEL-2 > 100 µM | SNB-19 > 100 µM | SNB-75 > 100 µM | TK-10 > 100 µM

NC1=NN(c2ccccc2)C(=O)C1/C(=N\NC(=O)c1cc2ccccc2cc1O)C(=O)Nc1ccc(Cl)c(Cl)c1 (stereo unspecified)
inactive: 786-0 31.3 µM | A498 49.8 µM | ACHN 28.3 µM | COLO 205 18.9 µM | HOP-62 65.2 µM | HT-29 59.2 µM | M14 19.6 µM | MOLT-4 22.9 µM | OVCAR-5 44.6 µM | RPMI-8226 26 µM | SF-295 35.8 µM | SF-539 30.9 µM | SK-MEL-2 55.7 µM | SNB-19 25.4 µM | SNB-75 31.2 µM | TK-10 55.6 µM | U-251 33 µM

CC(=O)Nc1ccccc1SCCSSCCSc1ccccc1NC(C)=O
inactive: 786-0 28.4 µM | ACHN 20.6 µM | COLO 205 20.4 µM | HOP-62 58.6 µM | HT-29 28.8 µM | M14 31.5 µM | MDA-MB-231 32.3 µM | MDA-MB-435 19.5 µM | MOLT-4 24 µM | OVCAR-5 31.5 µM | RPMI-8226 17.9 µM | SF-295 26.7 µM | SF-539 24 µM | SK-MEL-2 27.9 µM | SNB-19 17.7 µM | SNB-75 24.3 µM | TK-10 34.1 µM | U-251 26.5 µM

NC(=O)C(=CN1C(=O)CC(=O)NC1=S)C(N)=O
inactive: 786-0 > 100 µM | A498 > 100 µM | ACHN > 100 µM | COLO 205 > 100 µM | HOP-62 > 100 µM | HT-29 > 100 µM | M14 > 100 µM | MDA-MB-231 > 100 µM | MDA-MB-435 > 100 µM | MOLT-4 > 100 µM | OVCAR-5 > 100 µM | SF-295 > 100 µM | SF-539 > 100 µM | SK-MEL-2 > 100 µM | SNB-19 > 100 µM | SNB-75 > 100 µM | TK-10 > 100 µM | U-251 > 100 µM

CC1=Nc2ccccc2OC(C)=C1/N=N/c1ccc2[nH]c(C)nc2c1
inactive: 786-0 > 100 µM | A498 24.4 µM | ACHN 43.8 µM | COLO 205 > 100 µM | HOP-62 > 100 µM | HT-29 > 100 µM | M14 > 100 µM | MDA-MB-231 > 100 µM | MDA-MB-435 > 100 µM | MOLT-4 > 100 µM | OVCAR-5 > 100 µM | RPMI-8226 > 100 µM | SF-295 > 100 µM | SF-539 > 100 µM | SK-MEL-2 > 100 µM | SNB-19 > 100 µM | SNB-75 25.1 µM | TK-10 > 100 µM | U-251 > 100 µM

COc1cc(Nc2c(C#N)[n+]([O-])c3ccccc3[n+]2[O-])cc(OC)c1OC
inactive: 786-0 20 µM | A498 48.3 µM | ACHN 56.8 µM | COLO 205 12.6 µM | HOP-62 29 µM | HT-29 29.9 µM | Hs-578T > 100 µM | M14 15 µM | MDA-MB-435 37.4 µM | MOLT-4 42 µM | OVCAR-5 22.3 µM | RPMI-8226 > 100 µM | SF-295 46.3 µM | SF-539 33.6 µM | SK-MEL-2 39.1 µM | SNB-19 28.6 µM | SNB-75 > 100 µM | TK-10 > 100 µM | U-251 38 µM

COc1ccc(/C=C2\CCC(CNc3ccc(Br)cc3)C2=O)cc1 (stereo unspecified)
inactive: 786-0 > 100 µM | A498 > 100 µM | ACHN 15.3 µM | COLO 205 81.8 µM | HOP-62 > 100 µM | HT-29 > 100 µM | M14 65.8 µM | MDA-MB-231 53.3 µM | MDA-MB-435 > 100 µM | MOLT-4 34.1 µM | OVCAR-5 > 100 µM | RPMI-8226 5.87 µM | SF-295 > 100 µM | SNB-19 > 100 µM | TK-10 57.5 µM | U-251 > 100 µM
